Measurements as given in patent publication US5529984A, “Endoparasiticidal compositions based on open-chain hexadepsipeptides” (Bayer Aktiengesellschaft, priority 1993, dated 1996).

Tested on: Haemonchus contortus
Experiment: In vivo nematode test Haemonchus contortus/sheep
Conditions: sheep infected experimentally with Haemonchus contortus; pure active compound orally and/or intravenously; dose after which egg excretion with the faeces has stopped completely
Procedure: Haemonchus contortus/sheep
Sheep infected experimentally with Haemonchus contortus were treated after the prepatency period of the parasite had elapsed. The active compounds were administered orally and/or intravenously in the form of the pure active compound.
The degree of effectiveness is determined by quantitatively determining the nematode eggs excreted with the faeces before and after the treatment.
If egg excretion has stopped completely after the treatment, this means that the nematodes were aborted or are damaged to such an extent that they no longer produce eggs (Dosis effective).
Active compounds which have been tested and effective dosage rates (Dosis effective) can be seen from the table which follows: […]

CCC(C)C(C(=O)OC(C)C(=O)N(C)C(C(=O)OC(C)C(=O)N(C)C(C(=O)OC(C)C(=O)O)C(C)CC)C(C)CC)N(C)C(=O)OCc1ccccc1 [Example 3, N-Benzyloxycarbonyl-N-methyl-L-isoleucyl-D -lactyl-N-methyl-L-isoleucyl-D-lactyl-N-methyl-n-isoleucyl-D-lactic acid]
Dosis effective: 10 mg/kg
